Source: patent US5468760A, “Aralkyl-N-hydroxyureas as inhibitors of 5-lipoxygenase and oxidation of low density lipoprotein” (American Home Products Corporation, priority 1993, dated 1995)

Tested on: LT-dependent bronchoconstriction
Assay: Inhibition of Bronchoconstriction in Guinea Pigs Induced by Exogenously Administered Antigen
Assay type: in vivo, guinea pig (male)
Conditions: Cavia porcellus, 5 min, 5 min post-antigen challenge; for inhibition in vivo at 10 mg/kg: iv, 10 mg/kg i.v.
Description: 4. Inhibition of Brochoconstriction in Guinea Pigs Induced by Exogenously Administered Antigen
Male guinea pigs (Charles River, Wilmington, Mass.) were sensitized 3-4 weeks prior to antigen challenge by administration of 2 i.m. injections of ovalbumin, 1 into each hind limb (35 mg total). Sensitized animals (500-600 g) were fasted overnight prior to experimentation. Conscious animals were then dosed p.o. with drug or vehicle alone (0.5% Tween 80 in H2 O) at the indicated times prior to antigen challenge, or anesthetized animals were dosed i.v. with drug or vehicle alone (DMSO) 5 min prior to antigen challenge. Animals were anesthetized by urethane (2.8 g/kg i.p.). A carotid artery and jugular vein were cannulated to allow for the monitoring of blood pressure and the administration of drugs, respectively. The trachea was then cannulated and connected to a Harvard Apparatus rodent ventilator (S. Natick, Mass.). Spontaneous respiration was abolished by the administration of succinylcholine (2.5 mg/kg i.v.). The animals were then ventilated with room air at a rate of 65 breaths per min. Airway inflation pressure was measured using a Statham pressure transducer (Gould Instruments, Cleveland, Ohio) connected to the tracheal cannula via a side-arm and recorded on a Grass Instruments recorder (Quincy, Mass.). The tidal volume (approximately 10 cc/kg) was adjusted to give a baseline inflation pressure of 8-10 cm H2 O at end inspiration. Animals were then allowed 20 min to stabilize.
Following the stabilization period, animals were given i.v. injections of pyrilamine (5 mg/kg), propranolol (0.1 mg/kg) and indomethacin (10 mg/kg) at 15, 10 and 5 min, respectively, prior to antigen challenge. This pretreatment results in an LT-dependent bronchoconstriction following antigen challenge, which was accomplished by i.v. administration of ovalbumin (10 mg/kg). Only one bronchoconstriction per animal was induced. End-inspiratory inflation pressure (in cm H2 O over baseline) was measured at 5 min post-antigen challenge. A mean value and standard error for the % inhibition of control bronchoconstriction in each drug-treated group was then calculated.

Structure (SMILES) | inhibition in vivo at 10 mg/kg | inhibition in vivo at 25 mg/kg (po, 25 mg/kg p.o.)
Cc1oc(-c2ccc(F)cc2)nc1COc1cccc(CN(O)C(N)=O)c1 [Example 9, 1-[3-[2-(4-fluorophenyl)-5-methyl-oxazol-4-ylmethoxy]-benzyl]-1-hydroxy-urea] | 65% | –
NC(=O)N(O)Cc1cccc(OCc2csc(-c3ccc(Cl)cc3)n2)c1 [Example 6, 1-Hydroxy-1-[3-[2-(4-chloro-phenyl)-thiazol-4-ylmethoxy]-benzyl]-urea] | 70% | –
NC(=O)N(O)Cc1cccc(OCc2csc(-c3ccccc3)n2)c1 [Example 5, 1-Hydroxy-1-[3-(2-phenyl-thiazol-4-ylmethoxy)-benzyl]-urea] | – | 29%
Cc1oc(-c2ccccc2)nc1COc1cc(F)cc(CN(O)C(N)=O)c1 [Example 13, 1-[3-Fluoro-5-(5-methyl-2-phenyl-oxazol-4-ylmethoxy)-benzyl]-1-hydroxy-urea] | 29% | –
